Reference: publication PMC3636874, “An Antedrug of the CXCL12 Neutraligand Blocks Experimental Allergic Asthma without Systemic Effect in Mice” (The Journal of Biological Chemistry, 2013)
Converted amounts (≈) assume the structure as drawn.

Key:
[1] = Thermodynamic solubility (HPLC); format: physicochemical; settings: for solubility: phosphate-buffered saline, PBS pH 7.4, 21 °C, 24 h shaking (CN-chalcone 4: 2 h, estimate), read-out: solubility in saline buffer; for maximal concentration dissolved with HP-βCD: physiological solution with 10% HP-βCD, 21 °C (CN-chalcone 4: 2 h, estimate)
Experimental: Solubility and stability studies were performed on a Gilson HPLC system with a photodiode array detector, an autosampler, and a Valco injector. Data acquisition and processing were performed with Trilution LC version 2.0 software. Measurements were carried out at 21 ± 1 °C. A 2.6-μm Kinetex column (50 × 4.6 mm) was used for stability studies in biological media, and a 5-μm Luna C18(2) column (50 × 4.6 mm) was used for solubility and chemical stability analysis. Both columns were purchased from Phenomenex. The injection volume was 20 μl, the mobile phase flow rate was 2 ml/min, and the following program was applied for the elution: 0–0.2 min, 0% B; 0.2–2.7 min, 0–100% B; 2.7–3.2 min, 100% B; 3.2–3.4 min, 100–0% B; 3.4–6.1 min, 0% B. Solvent B was HPLC grade acetonitrile (Sigma-Aldrich CHROMASOLV). The aqueous solvent contained 0.1% trifluoroacetic acid, and the detection wavelength was 365 nm.
Thermodynamic solubility was measured by dissolving the compounds up to saturation in a pH 7.4 phosphate-buffered saline (PBS) with the following composition: 137.5 mM NaCl, 2.7 mM KCl, 4.3 mM Na2HPO4, and 1.4 mM KH2PO4 supplemented or not with 10% hydroxypropyl-β-cyclodextrin (HP-βCD). Samples were shaken for 24 h at 21 ± 1 °C. Saturation was confirmed by the presence of undissolved powder. After ultracentrifugation, the concentration in the supernatant was measured by an HPLC procedure using a calibration curve established for each compound by diluting a 10 mM DMSO stock solution to adapted concentrations. Due to rapid degradation of CN-chalcone 4, solubility was determined after 2 h of shaking. The indicated value given for CN-chalcone 4 is thus an estimate of the solubility.

HepG2 cells = assay: Cytotoxicity, Alamar Blue (resazurin) reduction assay; format: cell-based, human; settings: HepG2: 10 μM, 24 h
Experimental: The capacity of the cells to carry out reduction reactions after drug treatment was estimated with the fluorescent Alamar Blue reagent (AbD Serotec, Oxford, UK). Proliferating cells cause the change from the oxidized blue and non-fluorescent Alamar Blue form (resazurin) to a reduced, pink, highly fluorescent form (resorufin) that can be detected using fluorescence monitoring (excitation 560 nm; emission 590 nm). HepG2 or HEK 293 cells were seeded at a density of 30,000 cells/well on a 96-well plate and allowed to settle overnight before treatment. The dye was added to the cells together with the test substances (5-fold concentrated stock solution prepared in culture medium or in PBS with 10% HP-βCD), and the fluorescence was measured after 24-h incubation, using a Flex Station (Molecular Devices).

[2] = system: inflammatory cell recruitment in the airways of OVA-sensitized and challenged BALB/c mice; assay: 8-day murine model of airway hypereosinophilia (OVA sensitization and challenge), cell counts in BALF; format: in vivo, mouse; settings: for effect on eosinophil / inflammatory cell recruitment in BALF after OVA challenge, intranasal: intranasal 300 nmol/kg in 10% HP-βCD, 2 h before each challenge; for inhibition of eosinophil counts in BALF: intranasal, 300–500 nmol/kg in 10% HP-βCD, 2 h before each OVA challenge; for effect on inflammatory cell counts in BALF after OVA challenge, intraperitoneal in HP-βCD: twice daily 20 μmol/kg in 10% HP-βCD, 3 days; for effect on airway inflammation (BALF cell recruitment) after OVA challenge, intraperitoneal in carboxymethylcellulose: up to 350 μmol/kg once a day for 3 days in 1% carboxymethylcellulose
Experimental: The in vivo activity of the compounds was assessed in an 8-day model of hypereosinophilia created by immunization and challenge to ovalbumin in mice. Briefly, 9-week-old male BALB/c mice were sensitized by intraperitoneal injection of a mixture of 50 μg of ovalbumin (OVA, grade V; Sigma-Aldrich) adsorbed on aluminum hydroxide (2 mg; Sigma-Aldrich) in 0.1 ml of saline on days 0, 1, and 2. Mice were challenged intranasally with 10 μg of OVA in 25 μl of saline (12.5 μl/nostril) on days 5, 6, and 7. Control mice received intraperitoneal and intranasal administrations of saline alone. Intranasal administrations were performed under anesthesia with 50 mg/kg ketamine and 3.33 mg/kg xylazine given intraperitoneally. Food and water were supplied ad libitum. Animal experimentation was conducted with the approval of the government body that regulates animal research in France. The chalcone compounds were administered either by the intraperitoneal or intranasal routes. In a first set of experiments, mice received either chalcone 4 or carbonitrile-chalcone 4 solubilized in PBS with 10% HP-βCD (C0926, Sigma) by intranasal injection 2 h before each nasal OVA or saline challenge. In a second set of experiments, mice received CN-chalcone 4, vanillin, or parachlorobenzoylacetonitrile intranasally, in PBS with HP-βCD 10%, 2 h before each OVA or saline challenge. In the last set of experiments, mice received chalcone 4 or CN-chalcone 4 in suspension in carboxymethylcellulose 1% or solubilized in PBS with HP-βCD 10% and administered by intraperitoneal injection 2 h before each OVA or saline challenge. Collection of bronchoalveolar lavage fluid (BALF) was performed 24 h after the last OVA challenge. Mice were deeply anesthetized by intraperitoneal injection of 150 mg/kg ketamine and 10 mg/kg xylazine. A plastic canula was inserted into the trachea, and airways were lavaged by 10 instillations of 0.5 ml of ice-cold saline supplemented with 2.6 mM EDTA (saline-EDTA). Total and differential cell counts in the BALF were performed after centrifugation (300 × g for 5 min at 4 °C) to pellet cells. Erythrocytes were lysed by hypotonic shock by the addition of 1.5 ml of distilled H2O, followed by the addition of 0.5 ml of 0.6 M KCl. Cells were centrifuged and resuspended in 500 μl of ice-cold saline-EDTA, and total cell counts were determined using a hemocytometer (Neubauer's chamber). Differential cell counts were assessed on cytologic preparation obtained by cytocentrifugation (Cytospin 3, Shandon Ltd.) of 200 μl of diluted BALF (250,000 cells/ml in ice-cold saline-EDTA). Slides were stained with Hemacolor (Merck), and counts were performed on at least 400 cells for each preparation. Differential counts were expressed as absolute numbers or as a percentage of the total number of cells.
The in vivo activity of CN-chalcone 4 was assayed in a recently developed 8-day mouse model of airway hypereosinophilia ([24]). In this model, mice are sensitized by intraperitoneal injection of OVA (50 μg) adsorbed on 2 mg of aluminum hydroxide in 0.1 ml of saline on days 0, 1, and 2. Mice are then challenged intranasally with 10 μg of OVA in 25 μl of saline (12.5 μl/nostril) on days 5, 6, and 7. Drugs to be tested can be administered either systemically by the intraperitoneal route or locally by the intranasal route. The intranasal route mimics the inhalation exposure used in humans, which is the preferred and well accepted administration for inflamed airway treatment, in particular asthma. Thus, unless otherwise stated, drugs were administered intranasally in this study. Due to limited solubility of chalcone 4 (9 ± 1 μM) and CN-chalcone 4 (16 ± 2 μM) in saline buffer, drugs were dissolved in physiological solutions complemented with HP-βCD (10%, w/w). Under such conditions, chalcone 4 and CN-chalcone 4 could be dissolved at maximal concentrations reaching 690 ± 44 and 493 ± 36 μM, respectively.

Row | SMILES | solubility [1] [µM] | maximal concentration dissolved with HP-βCD [1] [µM] | toxic effect in vivo or in HepG2 cells in vitro (HepG2 cells) | effect on eosinophil / inflammatory cell recruitment in BALF after OVA challenge, intranasal [2] | inhibition of eosinophil counts in BALF [2] | effect on inflammatory cell counts in BALF after OVA challenge, intraperitoneal in HP-βCD [2] | effect on airway inflammation (BALF cell recruitment) after OVA challenge, intraperitoneal in carboxymethylcellulose [2]
1 | COc1cc(/C=C(\C#N)C(=O)c2ccc(Cl)cc2)ccc1O [CN-chalcone 4, (E)-2-(4-chlorobenzoyl)-3-(4-hydroxy-3-methoxyphenyl)acrylonitrile] | 16 ± 2 (≈ 5.02 µg/mL) | 493 ± 36 | neither the reactants nor carbonitrile-chalcone 4 display any toxic effect | as potent as chalcone 4 | up to 50% | did not affect any inflammatory cell counts | inactive
2 | COc1cc(/C=C/C(=O)c2ccc(Cl)cc2)ccc1O [chalcone 4] | 9 ± 1 (≈ 2.6 µg/mL) | 690 ± 44 | – | Significant reduction of eosinophil recruitment | up to 50% | significantly reducing eosinophils, neutrophils, and T cell counts in BALF | dose-dependent anti-inflammatory activity
